Values joined by “and” are separate entries in the source; they are usually repeats but may differ in a detail not shown here. Equal entries are not always repeated. Where two headings read alike, the source gives them in different places.
Key:
Test in all cases: SelectScreen kinase panel screening
Format in all cases: biochemical
RPS6KB1 (p70S6K) = RPS6KB1 (p70S6K) (Homo sapiens (Human), UniProt P23443); conditions: for inhibition at 10 µM: RPS6KB1 (p70S6K)
From the text: (§1) The complete list of the kinases given in Table 1 and their details can be found on the ThermoFisher website for Biochemical Kinase assays (thermofisher.com/us/en/home/industrial/pharma-biopharma/drug-discovery-development/target-and-lead-identification-and-validation/kinasebiology.html).
RJ1 was taken as the lead structure for the synthesis of several diamide and monoamide derivatives of 4,6-diaminoisoindolin-1,3-dione.

JAK2 = JAK2 (Homo sapiens (Human), UniProt O60674)
From the text: as §1

BRAF = BRAF (Homo sapiens (Human), UniProt P15056)
From the text: as §1

ROCK1 = ROCK1 (Homo sapiens (Human), UniProt Q13464)
From the text: as §1

CSF1R (FMS) = CSF1R (FMS) (Homo sapiens (Human), UniProt P07333)
CSF1R (FMS), sequence (P07333 20-972): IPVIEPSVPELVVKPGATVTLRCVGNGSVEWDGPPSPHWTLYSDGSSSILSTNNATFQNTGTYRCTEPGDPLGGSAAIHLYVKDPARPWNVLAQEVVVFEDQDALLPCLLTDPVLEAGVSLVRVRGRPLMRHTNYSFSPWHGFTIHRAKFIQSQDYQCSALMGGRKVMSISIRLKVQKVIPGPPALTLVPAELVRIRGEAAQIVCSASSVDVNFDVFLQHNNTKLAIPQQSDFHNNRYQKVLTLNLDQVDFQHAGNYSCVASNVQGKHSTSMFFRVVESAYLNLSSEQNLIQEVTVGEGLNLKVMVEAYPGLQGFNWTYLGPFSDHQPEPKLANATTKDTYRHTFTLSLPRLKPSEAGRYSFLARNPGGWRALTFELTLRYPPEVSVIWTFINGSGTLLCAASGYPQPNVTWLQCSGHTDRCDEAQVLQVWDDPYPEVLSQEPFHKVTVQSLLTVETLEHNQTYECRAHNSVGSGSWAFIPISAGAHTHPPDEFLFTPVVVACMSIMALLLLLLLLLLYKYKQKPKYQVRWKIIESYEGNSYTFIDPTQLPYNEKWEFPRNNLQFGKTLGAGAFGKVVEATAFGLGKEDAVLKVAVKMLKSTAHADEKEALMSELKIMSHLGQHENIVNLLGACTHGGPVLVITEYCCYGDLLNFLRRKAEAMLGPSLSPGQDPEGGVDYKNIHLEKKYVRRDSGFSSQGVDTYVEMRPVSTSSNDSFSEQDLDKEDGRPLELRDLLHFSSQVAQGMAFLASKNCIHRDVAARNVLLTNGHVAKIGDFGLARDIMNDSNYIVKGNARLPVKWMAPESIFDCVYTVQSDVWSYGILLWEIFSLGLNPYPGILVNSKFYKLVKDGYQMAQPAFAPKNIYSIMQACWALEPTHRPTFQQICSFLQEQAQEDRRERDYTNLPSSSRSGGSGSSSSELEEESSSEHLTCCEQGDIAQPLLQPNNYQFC
From the text: as §1

ABL1 = ABL1 (Homo sapiens (Human), UniProt P00519)
From the text: as §1

MAP4K4 (HGK) = MAP4K4 (HGK) (Homo sapiens (Human), UniProt O95819)
From the text: as §1

CDK1/cyclin B = CDK1/cyclin B (Homo sapiens (Human), UniProt P06493)
From the text: as §1

EPHB2 = EPHB2 (Homo sapiens (Human), UniProt P29323)
From the text: as §1

CDK2/cyclin A = CDK2/cyclin A (Homo sapiens (Human), UniProt P24941)
From the text: as §1

FGFR4 = FGFR4 (Homo sapiens (Human), UniProt P22455)
From the text: as §1

FES (FPS) = FES (FPS) (Homo sapiens (Human), UniProt P07332)
From the text: as §1

FGFR1 = FGFR1 (Homo sapiens (Human), UniProt P11362)
From the text: as §1

CSNK1E (CK1 epsilon) = CSNK1E (CK1 epsilon) (Homo sapiens (Human), UniProt P49674)
CSNK1E (CK1 epsilon), sequence (P49674 whole entry): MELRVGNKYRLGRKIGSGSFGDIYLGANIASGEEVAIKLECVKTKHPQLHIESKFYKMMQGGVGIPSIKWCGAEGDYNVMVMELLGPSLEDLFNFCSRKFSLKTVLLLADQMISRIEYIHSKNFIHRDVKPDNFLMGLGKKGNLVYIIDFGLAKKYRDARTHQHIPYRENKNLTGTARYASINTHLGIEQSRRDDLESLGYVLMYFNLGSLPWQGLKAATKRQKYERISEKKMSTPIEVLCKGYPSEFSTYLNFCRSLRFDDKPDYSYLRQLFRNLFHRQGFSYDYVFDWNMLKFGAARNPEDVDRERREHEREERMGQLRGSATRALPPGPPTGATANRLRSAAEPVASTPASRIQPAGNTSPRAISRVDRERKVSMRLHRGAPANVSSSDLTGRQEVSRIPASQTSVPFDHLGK
From the text: as §1

SYK = SYK (Homo sapiens (Human), UniProt P43405)
From the text: as §1

IKBKE (IKK epsilon) = IKBKE (IKK epsilon) (Homo sapiens (Human), UniProt Q14164)
From the text: as §1

[1] = molecular target: PIK3CA/PIK3R1 (p110 alpha/p85 alpha) (Homo sapiens (Human), UniProt P42336); conditions: read-out: % Inhibition class
From the text: as §1

YES1 = YES1 (Homo sapiens (Human), UniProt P07947)
YES1, sequence (P07947 whole entry): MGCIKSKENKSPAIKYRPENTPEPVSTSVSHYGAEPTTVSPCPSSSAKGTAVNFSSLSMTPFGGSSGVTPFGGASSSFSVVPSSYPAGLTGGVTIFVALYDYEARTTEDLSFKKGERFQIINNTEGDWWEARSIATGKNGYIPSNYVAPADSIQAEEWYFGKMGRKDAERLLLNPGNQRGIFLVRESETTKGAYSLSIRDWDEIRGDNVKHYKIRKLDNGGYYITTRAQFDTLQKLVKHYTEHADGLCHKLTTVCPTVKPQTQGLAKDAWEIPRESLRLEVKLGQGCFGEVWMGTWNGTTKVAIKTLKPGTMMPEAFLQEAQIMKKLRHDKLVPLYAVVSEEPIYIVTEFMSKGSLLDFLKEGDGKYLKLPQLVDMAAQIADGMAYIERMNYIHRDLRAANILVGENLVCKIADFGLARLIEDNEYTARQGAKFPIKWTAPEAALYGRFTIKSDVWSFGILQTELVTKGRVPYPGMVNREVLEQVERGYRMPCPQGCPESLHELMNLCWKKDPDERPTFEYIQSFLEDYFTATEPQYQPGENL
From the text: as §1

LYN A = LYN A (Homo sapiens (Human), UniProt P07948)
From the text: as §1

CHEK2 (CHK2) = CHEK2 (CHK2) (Homo sapiens (Human), UniProt O96017)
CHEK2 (CHK2), sequence (O96017 whole entry): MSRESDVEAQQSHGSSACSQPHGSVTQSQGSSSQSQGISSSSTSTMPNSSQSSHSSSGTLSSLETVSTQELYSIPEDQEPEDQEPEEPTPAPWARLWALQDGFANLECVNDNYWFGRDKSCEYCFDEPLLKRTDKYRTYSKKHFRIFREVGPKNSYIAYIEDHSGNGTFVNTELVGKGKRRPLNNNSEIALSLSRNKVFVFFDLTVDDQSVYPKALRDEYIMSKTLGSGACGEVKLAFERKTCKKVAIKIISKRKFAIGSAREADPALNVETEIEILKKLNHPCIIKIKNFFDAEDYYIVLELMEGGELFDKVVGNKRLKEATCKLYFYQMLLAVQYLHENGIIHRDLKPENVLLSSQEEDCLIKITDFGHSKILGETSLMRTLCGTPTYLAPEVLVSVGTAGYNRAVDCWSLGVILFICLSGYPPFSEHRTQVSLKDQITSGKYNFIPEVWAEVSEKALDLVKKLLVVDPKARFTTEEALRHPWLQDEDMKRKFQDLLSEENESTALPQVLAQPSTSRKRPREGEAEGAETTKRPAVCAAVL
From the text: as §1

[2] = molecular target: MAPK14 (p38 alpha) Direct (Homo sapiens (Human), UniProt Q16539)
From the text: as §1

CDC42 BPB (MRCKB) = CDC42 BPB (MRCKB) (Homo sapiens (Human), UniProt Q9Y5S2)
From the text: as §1

KIT = KIT (Homo sapiens (Human), UniProt P10721)
From the text: as §1

TYRO3 (RSE) = TYRO3 (RSE) (Homo sapiens (Human), UniProt Q06418)
From the text: as §1

GSG2 (Haspin) = GSG2 (Haspin) (Homo sapiens (Human), UniProt Q8TF76)
GSG2 (Haspin), sequence (Q8TF76 whole entry): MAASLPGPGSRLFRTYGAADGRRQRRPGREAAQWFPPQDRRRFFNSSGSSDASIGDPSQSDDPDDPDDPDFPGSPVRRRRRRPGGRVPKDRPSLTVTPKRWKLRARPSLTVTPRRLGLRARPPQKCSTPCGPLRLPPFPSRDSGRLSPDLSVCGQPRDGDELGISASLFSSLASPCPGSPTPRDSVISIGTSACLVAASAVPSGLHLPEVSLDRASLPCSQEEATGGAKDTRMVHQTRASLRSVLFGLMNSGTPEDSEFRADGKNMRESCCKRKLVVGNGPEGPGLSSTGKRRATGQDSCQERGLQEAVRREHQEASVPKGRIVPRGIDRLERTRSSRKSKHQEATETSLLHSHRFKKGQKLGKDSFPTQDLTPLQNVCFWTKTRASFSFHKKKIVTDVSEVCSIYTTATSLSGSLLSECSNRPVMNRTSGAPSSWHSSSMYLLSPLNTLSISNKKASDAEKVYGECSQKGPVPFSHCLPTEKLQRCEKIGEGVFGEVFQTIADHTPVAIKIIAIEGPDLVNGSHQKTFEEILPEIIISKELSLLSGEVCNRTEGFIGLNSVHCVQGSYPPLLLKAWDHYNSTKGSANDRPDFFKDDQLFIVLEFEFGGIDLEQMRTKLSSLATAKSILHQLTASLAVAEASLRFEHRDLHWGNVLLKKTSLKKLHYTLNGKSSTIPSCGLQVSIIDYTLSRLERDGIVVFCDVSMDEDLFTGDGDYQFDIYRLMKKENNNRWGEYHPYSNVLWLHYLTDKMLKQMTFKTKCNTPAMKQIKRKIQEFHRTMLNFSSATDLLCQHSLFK
From the text: as §1

PLK1 = PLK1 (Homo sapiens (Human), UniProt P53350)
From the text: as §1

MAP3K8 (COT) = MAP3K8 (COT) (Homo sapiens (Human), UniProt P41279)
From the text: as §1

PTK2B (FAK2) = PTK2B (FAK2) (Homo sapiens (Human), UniProt Q14289)
PTK2B (FAK2), sequence (Q14289 whole entry): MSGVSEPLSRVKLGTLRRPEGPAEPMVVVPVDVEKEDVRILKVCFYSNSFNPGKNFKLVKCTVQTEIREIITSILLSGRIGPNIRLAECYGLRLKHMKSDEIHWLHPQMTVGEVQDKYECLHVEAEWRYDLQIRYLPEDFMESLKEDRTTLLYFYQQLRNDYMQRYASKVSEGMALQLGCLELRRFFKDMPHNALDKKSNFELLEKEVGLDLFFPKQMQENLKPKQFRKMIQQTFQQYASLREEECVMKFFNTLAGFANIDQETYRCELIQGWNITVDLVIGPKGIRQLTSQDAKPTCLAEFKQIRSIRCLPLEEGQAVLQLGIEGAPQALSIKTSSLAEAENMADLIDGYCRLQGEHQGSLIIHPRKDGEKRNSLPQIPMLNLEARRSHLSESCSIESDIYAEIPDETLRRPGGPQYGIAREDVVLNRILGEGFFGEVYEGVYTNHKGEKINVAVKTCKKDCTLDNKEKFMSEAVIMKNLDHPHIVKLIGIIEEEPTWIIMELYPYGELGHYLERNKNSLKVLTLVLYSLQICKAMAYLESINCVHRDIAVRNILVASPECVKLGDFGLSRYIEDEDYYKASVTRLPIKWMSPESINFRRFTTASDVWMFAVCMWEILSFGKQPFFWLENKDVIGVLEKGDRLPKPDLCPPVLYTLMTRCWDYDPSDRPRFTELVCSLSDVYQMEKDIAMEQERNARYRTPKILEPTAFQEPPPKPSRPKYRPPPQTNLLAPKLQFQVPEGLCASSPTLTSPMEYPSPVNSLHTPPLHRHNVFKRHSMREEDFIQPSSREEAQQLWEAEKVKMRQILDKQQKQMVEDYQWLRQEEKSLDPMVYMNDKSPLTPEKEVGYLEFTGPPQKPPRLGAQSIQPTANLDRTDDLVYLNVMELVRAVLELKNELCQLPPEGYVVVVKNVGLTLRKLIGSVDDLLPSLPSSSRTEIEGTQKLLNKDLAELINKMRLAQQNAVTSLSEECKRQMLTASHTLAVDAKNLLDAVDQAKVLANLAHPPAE
From the text: as §1

MST4 = MST4 (Homo sapiens (Human), UniProt Q9P289)
From the text: as §1

RPS6KB1 (p70S6K), sequence (P23443 whole entry): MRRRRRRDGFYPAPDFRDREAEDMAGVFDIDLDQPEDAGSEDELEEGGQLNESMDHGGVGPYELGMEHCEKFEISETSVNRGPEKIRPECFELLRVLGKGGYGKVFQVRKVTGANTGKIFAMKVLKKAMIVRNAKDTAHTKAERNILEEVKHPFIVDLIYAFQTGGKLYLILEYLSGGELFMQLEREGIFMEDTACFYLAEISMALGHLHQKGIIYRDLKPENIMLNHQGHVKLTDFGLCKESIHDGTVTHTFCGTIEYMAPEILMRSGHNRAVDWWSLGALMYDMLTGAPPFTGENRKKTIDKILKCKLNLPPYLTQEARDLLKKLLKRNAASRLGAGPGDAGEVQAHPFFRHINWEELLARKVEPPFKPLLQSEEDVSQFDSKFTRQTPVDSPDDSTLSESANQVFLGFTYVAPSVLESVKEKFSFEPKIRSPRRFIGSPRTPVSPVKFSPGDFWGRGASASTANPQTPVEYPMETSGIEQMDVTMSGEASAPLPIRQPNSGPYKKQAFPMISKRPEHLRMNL

Structure (SMILES): Nc1cc(N)c2c(c1)C(=O)NC2=O [RJ1, 4,6-diaminoisoindoline-1,3-dione]
- inhibition at 10 µM (RPS6KB1 (p70S6K); read-out: % Inhibition): 80%
- inhibition at 10 µM (RPS6KB1 (p70S6K); read-out: % Inhibition class): ≥ 80%
- selectivity against a panel of 120 disease relevant kinases (RPS6KB1 (p70S6K); SelectScreen panel): RPS6K1-selective inhibitor
- inhibition at 10 µM (JAK2; read-out: % Inhibition): 22%
- inhibition at 10 µM (JAK2; read-out: % Inhibition class): < 40%
- inhibition at 10 µM (BRAF; read-out: % Inhibition): 19%
- inhibition at 10 µM (BRAF; read-out: % Inhibition class): < 40%
- inhibition at 10 µM (ROCK1; read-out: % Inhibition): 21%
- inhibition at 10 µM (ROCK1; read-out: % Inhibition class): < 40%
- inhibition at 10 µM (CSF1R (FMS); read-out: % Inhibition): 26%
- inhibition at 10 µM (CSF1R (FMS); read-out: % Inhibition class): < 40%
- inhibition at 10 µM (ABL1; read-out: % Inhibition): 59%
- inhibition at 10 µM (ABL1; read-out: % Inhibition class): 40 to 80%
- inhibition at 10 µM (MAP4K4 (HGK); read-out: % Inhibition): 66%
- inhibition at 10 µM (MAP4K4 (HGK); read-out: % Inhibition class): 40 to 80%
- inhibition at 10 µM (CDK1/cyclin B; read-out: % Inhibition): 8%
- inhibition at 10 µM (CDK1/cyclin B; read-out: % Inhibition class): < 40%
- inhibition at 10 µM (EPHB2; read-out: % Inhibition): 10%
- inhibition at 10 µM (EPHB2; read-out: % Inhibition class): < 40%
- inhibition at 10 µM (CDK2/cyclin A; read-out: % Inhibition): 9%
- inhibition at 10 µM (CDK2/cyclin A; read-out: % Inhibition class): < 40%
- inhibition at 10 µM (FGFR4; read-out: % Inhibition): 20%
- inhibition at 10 µM (FGFR4; read-out: % Inhibition class): < 40%
- inhibition at 10 µM (FES (FPS); read-out: % Inhibition): 36%
- inhibition at 10 µM (FES (FPS); read-out: % Inhibition class): < 40%
- inhibition at 10 µM (FGFR1; read-out: % Inhibition): 51%
- inhibition at 10 µM (FGFR1; read-out: % Inhibition class): 40 to 80%
- inhibition at 10 µM (CSNK1E (CK1 epsilon); read-out: % Inhibition): 33%
- inhibition at 10 µM (CSNK1E (CK1 epsilon); read-out: % Inhibition class): < 40%
- inhibition at 10 µM (SYK; read-out: % Inhibition): 39%
- inhibition at 10 µM (SYK; read-out: % Inhibition class): < 40%
- inhibition at 10 µM (IKBKE (IKK epsilon); read-out: % Inhibition): 16%
- inhibition at 10 µM (IKBKE (IKK epsilon); read-out: % Inhibition class): < 40%
- inhibition at 10 µM [1]: < 40%
- inhibition at 10 µM (YES1; read-out: % Inhibition): 24%
- inhibition at 10 µM (YES1; read-out: % Inhibition class): < 40%
- inhibition at 10 µM (LYN A; read-out: % Inhibition): 12%
- inhibition at 10 µM (LYN A; read-out: % Inhibition class): < 40%
- inhibition at 10 µM (CHEK2 (CHK2); read-out: % Inhibition): 38%
- inhibition at 10 µM (CHEK2 (CHK2); read-out: % Inhibition class): < 40%
- inhibition at 10 µM ([2]; read-out: % Inhibition): 2%
- inhibition at 10 µM ([2]; read-out: % Inhibition class): < 40%
- inhibition at 10 µM (CDC42 BPB (MRCKB); read-out: % Inhibition): 0%
- inhibition at 10 µM (CDC42 BPB (MRCKB); read-out: % Inhibition class): < 40%
- inhibition at 10 µM (KIT; read-out: % Inhibition): 7%
- inhibition at 10 µM (KIT; read-out: % Inhibition class): < 40%
- inhibition at 10 µM (TYRO3 (RSE); read-out: % Inhibition): 25%
- inhibition at 10 µM (TYRO3 (RSE); read-out: % Inhibition class): < 40%
- % Inhibition (GSG2 (Haspin); 10 μM): 34% and 65%
- inhibition at 10 µM (GSG2 (Haspin); read-out: % Inhibition class): < 40%
- inhibition at 10 µM (PLK1; read-out: % Inhibition): 9%
- inhibition at 10 µM (PLK1; read-out: % Inhibition class): < 40%
- inhibition at 10 µM (MAP3K8 (COT); read-out: % Inhibition): 29%
- inhibition at 10 µM (MAP3K8 (COT); read-out: % Inhibition class): < 40%
- inhibition at 10 µM (PTK2B (FAK2); read-out: % Inhibition): 18%
- inhibition at 10 µM (PTK2B (FAK2); read-out: % Inhibition class): < 40%
- inhibition at 10 µM (MST4; read-out: % Inhibition): 52%
- inhibition at 10 µM (MST4; read-out: % Inhibition class): 40 to 80%

Source: patent publication US11912660B2, “S6K1 protein kinase inhibitors as cancer therapeutics” (Xavier University of Louisiana, priority 2020, dated 2024)
